Assay results as given in patent US10752588B2 (The Broad Institute, Inc., priority 2014, dated 2020).
pEC50, pIC50, pKi: −log10 of the molar value. Values after ≈ are worked out from the molar mass of the structure shown.

What was measured:
[1] = Microsomal stability, mouse
[2] = Plasma protein binding, human; type: in vitro ADME; conditions: plasma, read-out: Plasma Protein Binding % bound
Plasma stability, rat = type: in vitro ADME
human D2R/β-arrestin [3] = target: T1, human D2R/β-arrestin (Homo sapiens (Human), UniProt P14416); experiment: cell-based; conditions: β-arrestin Antagonist, CHO-K1 cell line expressing human D2R/β-arrestin; quinpirole used as agonist
human D2R/β-arrestin [4] = target: T1, human D2R/β-arrestin; experiment: cell-based; conditions: cAMP Antagonist, CHO-K1 cell line expressing human D2R/β-arrestin; quinpirole used as agonist
Protocol: The detection reagents are then added, and the read-out is detected.
Cells were prepared for assays by growing cultures for up to 2 weeks (from about 6-20 passages). A vial of frozen cells was thawed in a water bath held at 37° C. The cells were then transferred into a 50 ml tube with 10 ml growth media. The vial was rinsed with growth media and the contents transferred to the 50 ml tube. The 50 ml tube was centrifuged at 1200 rpm for 5 minutes at room temperature. […] When the cells reached about 90% confluence (approximately 3 days between passages), the cells were passaged and used for either the agonist or antagonist assays as described below.
The cells were prepared for Gi/cAMP assays as described above. The assays were performed using a PE Lance Ultra cAMP kit (TRF0263). The cells were grown on 225 mm dishes, then washed once with 1×PBS (Cellgro) before digestion with 2.5 ml 1× Detachment reagent (DRX 92-0009) for about 2 minutes. PBS (20 ml) was then added to the plate, and the cells were transferred to a 50 ml centrifuge tube, and centrifuged at room temperature using BD Dynac III, at 1200 rpm for 5 minutes. […] The plates were then incubated at room temperature for about 30 minutes before addition of Eu-cAMP tracer solution (100, PerkinElmer) and then ULight-anti-cAMP solution (100) to each well.

[5] = Microsomal stability, rat; type: in vitro ADME
[6] = Plasma protein binding, rat; type: in vitro ADME; conditions: plasma, read-out: Plasma Protein Binding % bound
Solubility in PBS = type: physicochemical; conditions: aqueous buffer
[7] = Microsomal stability, human; type: in vitro ADME
[8] = Plasma protein binding, mouse; type: in vitro ADME; conditions: plasma, read-out: Plasma Protein Binding % bound
human D2R/β-arrestin [9] = target: T1, human D2R/β-arrestin; experiment: β-Arrestin agonist assay (PathHunter); type: cell-based; conditions: CHO-K1 cell line expressing human D2R/β-arrestin
In short: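 After compound incubation, detection reagent (Buffer:Emerald II:Galactor-Star, 19:5:1) added and luminescence or fluorescence read.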

Plasma stability, human = type: in vitro ADME
human D2R/β-arrestin [10] = target: T1, human D2R/β-arrestin; experiment: Gi/cAMP agonist assay (Lance Ultra cAMP, Forskolin); type: cell-based; conditions: CHO-K1 cell line expressing human D2R/β-arrestin
In short: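 Cells were plated and incubated before compounds were pin-transferred and incubated for 10 min at 37 °C. Forskolin was then added to stimulate cAMP. cAMP was detected by Lance Ultra TR-FRET using Eu-cAMP tracer and ULight-anti-cAMP antibody.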

plasma protein [11] = experiment: Plasma protein binding, human; type: in vitro ADME; conditions: plasma, read-out: Plasma Protein Binding % bound
plasma protein [12] = experiment: Plasma protein binding, rat; type: in vitro ADME; conditions: plasma, read-out: Plasma Protein Binding % bound
Caco2 = Caco2 permeability; type: in vitro ADME; set-up: unit not given beside the values; conditions: for Caco2 A-B: A-B direction; for Caco2 B-A: B-A direction
plasma protein [13] = experiment: Plasma protein binding, mouse; type: in vitro ADME; conditions: plasma, read-out: Plasma Protein Binding % bound
Rotarod performance = type: in vivo; conditions: mice, 10 or 30 mg/kg, compared with clozaril at 3 mg/kg
Protocol: In the test, test animals are placed on a horizontally oriented, rotating cylinder (rod) suspended above a cage floor. The test animals naturally try to stay on the rotating cylinder, or rotarod, and avoid falling to the ground. Test animals are administered with various compounds (e.g., compounds of the invention or control compounds). The length of time that a given animal stays on this rotating rod is a measure of the animal's balance, coordination, physical condition, and motor-planning. The speed of the rotarod is mechanically driven, and can be held constant.
In the test, mice were placed on a horizontally oriented, rotating cylinder (rod) suspended above a cage floor, which was low enough not to injure the animal, but high enough to induce avoidance of fall. The mice naturally try to stay on the rotating cylinder, or rotarod, and avoid falling to the ground.

D2 = D2 (Homo sapiens (Human), UniProt P14416); experiment: D2 radioligand binding assay
human D2R/β-arrestin [14] = target: T1, human D2R/β-arrestin; conditions: CHO-K1 cell line expressing human D2R/β-arrestin, β-arrestin and Gi/cAMP pathways, FIG. 1
MDR1-MDCKII = MDR1-MDCKII permeability assay; type: in vitro ADME
Excerpt: MDR1-MDCKII Permeability Assay
This is a standard permeability assay that predicts brain penetration. It was ran by the CRO Absorption Systems (www.absorption.com/drug-discovery/permeability/cell-based/).

T1 sequence (P14416 whole entry): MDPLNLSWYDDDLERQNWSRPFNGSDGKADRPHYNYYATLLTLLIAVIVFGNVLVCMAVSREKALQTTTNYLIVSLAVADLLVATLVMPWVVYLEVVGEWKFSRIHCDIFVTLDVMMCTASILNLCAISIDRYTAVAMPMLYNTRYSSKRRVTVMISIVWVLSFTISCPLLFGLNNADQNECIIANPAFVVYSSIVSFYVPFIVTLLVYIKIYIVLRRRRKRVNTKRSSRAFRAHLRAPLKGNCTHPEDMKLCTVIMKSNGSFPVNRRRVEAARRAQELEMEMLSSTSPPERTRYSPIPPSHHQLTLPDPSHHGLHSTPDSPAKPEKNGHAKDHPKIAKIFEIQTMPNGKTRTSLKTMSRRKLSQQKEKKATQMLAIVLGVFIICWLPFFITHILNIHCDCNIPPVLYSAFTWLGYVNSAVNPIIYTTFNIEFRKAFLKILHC
Chain of D2 (P14416 whole entry): as above

O=C(NC(c1ccc(Cl)cc1)c1ccccn1)C1CCN(CCCc2ccccc2)CC1 (centres unmarked) [Compound 18, N-((4-chlorophenyl)(pyridin-2-yl)methyl)-1-(3-phenylpropyl)piperidine-4-carboxamide]
Microsomal Stability: % remaining after 60 minutes [1]: 43% | fraction unbound [2]: 0.046 | Plasma Stability: % remaining after 5 hours (Plasma stability, rat): 93.2% | pIC50 (human D2R/β-arrestin [3]): 5.00 to 6.00 | pIC50 (human D2R/β-arrestin [4]): < 4.52 | Microsomal Stability: % remaining after 60 minutes [5]: 55% | fraction unbound [6]: 0.027 | solubility (Solubility in PBS): 352 µM (≈ 158 µg/mL) | Microsomal Stability: % remaining after 60 minutes [7]: 78% | fraction unbound [8]: 0.056 | pEC50 (human D2R/β-arrestin [9]): < 4.52 | Plasma Stability: % remaining after 5 hours (Plasma stability, mouse): 90.5% | Plasma Stability: % remaining after 5 hours (Plasma stability, human): 94.9% | pEC50 (human D2R/β-arrestin [10]): 6.00 to 7.00

COc1cccc(C(NC(=O)C2CCN(CCOc3ccccc3)CC2)c2ccccn2)c1 (centres unmarked) [Compound 35]
Microsomal Stability: % remaining after 60 minutes [1]: 74% | fraction unbound (plasma protein [11]): 0.086 | Plasma Stability: % remaining after 5 hours (Plasma stability, rat): 99.6% | pIC50 (human D2R/β-arrestin [3]): 5.00 to 6.00 | pIC50 (human D2R/β-arrestin [4]): 5.00 to 6.00 | Microsomal Stability: % remaining after 60 minutes [5]: 80% | fraction unbound (plasma protein [12]): 0.042 | solubility (Solubility in PBS): 441 µM (≈ 196 µg/mL) | Caco2 A-B (Caco2): 26.7 | Caco2 B-A (Caco2): 46.7 | Microsomal Stability: % remaining after 60 minutes [7]: 83% | fraction unbound (plasma protein [13]): 0.074 | catalepsy in the rotarod test (Rotarod performance): promotes far less catalepsy than the known antipsychotic Clozapine at efficacious doses | pEC50 (human D2R/β-arrestin [9]): < 4.52 | Plasma Stability: % remaining after 5 hours (Plasma stability, mouse): 98% | Plasma Stability: % remaining after 5 hours (Plasma stability, human): 100% | pEC50 (human D2R/β-arrestin [10]): 5.00 to 6.00

O=C(NC(c1ccccn1)C1CCCCC1)C1CCN(CCOc2ccccc2)CC1 (centres unmarked) [Compound 37, N-(cyclohexyl(pyridin-2-yl)methyl)-1-(2-phenoxyethyl)piperidine-4-carboxamide]
Microsomal Stability: % remaining after 60 minutes [1]: 31% | fraction unbound [2]: 0.047 | Plasma Stability: % remaining after 5 hours (Plasma stability, rat): 100% | pIC50 (human D2R/β-arrestin [3]): 6.00 to 7.00 | pIC50 (human D2R/β-arrestin [4]): 5.00 to 6.00 | Microsomal Stability: % remaining after 60 minutes [5]: 28% | fraction unbound [6]: 0.024 | solubility (Solubility in PBS): 197 µM (≈ 83.1 µg/mL) | Microsomal Stability: % remaining after 60 minutes [7]: 71% | fraction unbound [8]: 0.051 | pEC50 (human D2R/β-arrestin [9]): < 4.52 | Plasma Stability: % remaining after 5 hours (Plasma stability, mouse): 98% | Plasma Stability: % remaining after 5 hours (Plasma stability, human): 100% | pEC50 (human D2R/β-arrestin [10]): < 4.52

O=C(NC(c1ccc(Cl)cc1)c1ccccn1)C1CCN(CCOc2ccccc2Cl)CC1 (centres unmarked) [Compound 66, 1-(2-(2-chlorophenoxy)ethyl)-N-((4-chlorophenyl)(pyridin-2-yl)methyl)piperidine-4-carboxamide]
Microsomal Stability: % remaining after 60 minutes [1]: 7% | pKi (D2): 6.00 to 7.00 | fraction unbound [2]: 0.007 | Plasma Stability: % remaining after 5 hours (Plasma stability, rat): 88.1% | pIC50 (human D2R/β-arrestin [3]): > 7.00 | pIC50 (human D2R/β-arrestin [4]): > 7.00 | Microsomal Stability: % remaining after 60 minutes [5]: 35% | fraction unbound [6]: 0.006 | solubility (Solubility in PBS): 10.5 µM (≈ 5.09 µg/mL) | Caco2 A-B (Caco2): 15.1 | Caco2 B-A (Caco2): 2.4 | Microsomal Stability: % remaining after 60 minutes [7]: 46% | fraction unbound [8]: 0.008 | pEC50 (human D2R/β-arrestin [9]): < 4.52 | Plasma Stability: % remaining after 5 hours (Plasma stability, mouse): 100% | Plasma Stability: % remaining after 5 hours (Plasma stability, human): 99.7% | pEC50 (human D2R/β-arrestin [10]): 4.52 to 5.00

CN(CC1CCN(CCOc2ccccc2)CC1)C(c1ccc(Cl)cc1)c1ccccn1 (centres unmarked) [Compound 79, 1-(4-chlorophenyl)-N-methyl-N-((1-(2-phenoxyethyl)piperidin-4-yl)methyl)-1-(pyridin-2-yl)methanamine]
Microsomal Stability: % remaining after 60 minutes [1]: m0% | pKi (D2): 6.00 to 7.00 | pIC50 (human D2R/β-arrestin [3]): 6.00 to 7.00 | pIC50 (human D2R/β-arrestin [4]): < 4.52 | functional profile at D2R (antagonist mode) (human D2R/β-arrestin [14]): representative β-arrestin biased D2R antagonists | MDR1-MDCKII A-B (MDR1-MDCKII; A-B direction): 6.17 | MDR1-MDCKII B-A (MDR1-MDCKII; B-A direction): 22.1 | pEC50 (human D2R/β-arrestin [9]): < 4.52 | pEC50 (human D2R/β-arrestin [10]): > 7.00

O=C(NC(c1ccncc1)c1ccc(Cl)cc1)C1CCN(CCOc2ccccc2)CC1 (centres unmarked) [Compound 112, N-((4-chlorophenyl)(pyridin-4-yl)methyl)-1-(2-phenoxyethyl)piperidine-4-carboxamide]
Microsomal Stability: % remaining after 60 minutes [1]: 29% | fraction unbound [2]: 0.064 | Plasma Stability: % remaining after 5 hours (Plasma stability, rat): 95% | pIC50 (human D2R/β-arrestin [3]): 5.00 to 6.00 | pIC50 (human D2R/β-arrestin [4]): < 4.52 | Microsomal Stability: % remaining after 60 minutes [5]: 53% | fraction unbound [6]: 0.02 | solubility (Solubility in PBS): 19 µM (≈ 8.55 µg/mL) | Microsomal Stability: % remaining after 60 minutes [7]: 52% | fraction unbound [8]: 0.05 | pEC50 (human D2R/β-arrestin [9]): < 4.52 | Plasma Stability: % remaining after 5 hours (Plasma stability, mouse): 95% | Plasma Stability: % remaining after 5 hours (Plasma stability, human): 100% | pEC50 (human D2R/β-arrestin [10]): > 7.00

Clc1ccc(C(NCC2CCN(CCOc3ccccc3)CC2)c2ccccn2)cc1 (centres unmarked) [Compound 114, 1-(4-chlorophenyl)-N-((1-(2-phenoxyethyl)piperidin-4-yl)methyl)-1-(pyridin-2-yl)methanamine]
Microsomal Stability: % remaining after 60 minutes [1]: 6% | pKi (D2): 6.00 to 7.00 | fraction unbound [2]: 0.014 | Plasma Stability: % remaining after 5 hours (Plasma stability, rat): h100, m100, r100% | pIC50 (human D2R/β-arrestin [3]): 6.00 to 7.00 | pIC50 (human D2R/β-arrestin [4]): > 7.00 | Microsomal Stability: % remaining after 60 minutes [5]: 20% | fraction unbound [6]: 0.005 | Microsomal Stability: % remaining after 60 minutes [7]: 63% | fraction unbound [8]: 0.023 | pEC50 (human D2R/β-arrestin [9]): < 4.52 | Plasma Stability: % remaining after 5 hours (Plasma stability, mouse): h100, m100, r100% | Plasma Stability: % remaining after 5 hours (Plasma stability, human): h100, m100, r100% | pEC50 (human D2R/β-arrestin [10]): < 4.52

O=C(NC(c1ccc(Cl)cc1)c1ccccn1)C1CCN(CCOc2ccc(F)cc2F)CC1 (centres unmarked) [Compound 115, N-((4-chlorophenyl)(pyridin-2-yl)methyl)-1-(2-(2,4-difluorophenoxy)ethyl)piperidine-4-carboxamide]
Microsomal Stability: % remaining after 60 minutes [1]: 26% | fraction unbound [2]: 0.008 | Plasma Stability: % remaining after 5 hours (Plasma stability, rat): 98.0% | pIC50 (human D2R/β-arrestin [3]): 5.00 to 6.00 | pIC50 (human D2R/β-arrestin [4]): < 4.52 | Microsomal Stability: % remaining after 60 minutes [5]: 77% | fraction unbound [6]: 0.005 | solubility (Solubility in PBS): 220 µM (≈ 107 µg/mL) | Caco2 A-B (Caco2): 30.4 | Caco2 B-A (Caco2): 11.5 | Microsomal Stability: % remaining after 60 minutes [7]: 63% | fraction unbound [8]: 0.015 | pEC50 (human D2R/β-arrestin [9]): < 4.52 | Plasma Stability: % remaining after 5 hours (Plasma stability, mouse): 86.2% | Plasma Stability: % remaining after 5 hours (Plasma stability, human): 91.2% | pEC50 (human D2R/β-arrestin [10]): 6.00 to 7.00

COc1cccc(C(NC(=O)C2CCN(CCOc3ccccc3)CC2)c2ccccc2)c1 (centres unmarked) [Compound 146, N-((3-methoxyphenyl)(phenyl)methyl)-1-(2-phenoxyethyl)piperidine-4-carboxamide]
Microsomal Stability: % remaining after 60 minutes [1]: 36% | fraction unbound [2]: 0.022 | Plasma Stability: % remaining after 5 hours (Plasma stability, rat): 88% | pIC50 (human D2R/β-arrestin [3]): 5.00 to 6.00 | pIC50 (human D2R/β-arrestin [4]): 5.00 to 6.00 | Microsomal Stability: % remaining after 60 minutes [5]: 27% | fraction unbound [6]: 0.021 | Microsomal Stability: % remaining after 60 minutes [7]: 56% | fraction unbound [8]: 0.04 | pEC50 (human D2R/β-arrestin [9]): < 4.52 | Plasma Stability: % remaining after 5 hours (Plasma stability, mouse): 96% | Plasma Stability: % remaining after 5 hours (Plasma stability, human): 98% | pEC50 (human D2R/β-arrestin [10]): < 4.52
